Laboratory results published in US4036962A, “6,7-Methylenedioxy-1-(2,2,2-trifluoroethyl)-4(1H)-quinolone-3-carboxylic acid and its salts and esters” (E. I. Du Pont de Nemours and Co., priority 1975, dated 1977).
Like-named read-outs stand apart in the source and are kept apart here.

Key:
[1] = tested on: Escherichia coli; test: In vivo antibacterial activity in mice infected with Escherichia coli (intraperitoneal), compound given orally at infection and 4 hours later; mortality through third day; conditions: for ED50: Escherichia coli, po, 72 h
Procedure: Use of the ester of this invention as antibacterial agents is exemplified by data for 6,7-methylene-1-(2,2,2-trifluoroethyl)-4(1H)-quinolone-3-carboxylic acid, trimethylacetoxymethyl ester. In vivo determinations of antibacterial activity are carried out in mice.
The test bacterium is grown into bacteriological medium from frozen stock cultures. The culture is centrifuged, resuspended, centrifuged again, resuspended in fresh bacteriological medium, and diluted to the proper infective concentration. Mice are infected by intraperitoneal or intravenous injection of 0.2 ml. of the diluted bacterial culture.
Test compounds are dissolved or suspended in water containing 0.01% Tween 80 by either sonication or bead-milling to break up the materials in order to dissolve them or provide a fine suspension for the insoluble compounds. Concentrations are prepared so that when 0.2 ml. of the solution or suspension is administered to mice orally by intubation, the correct amount of compound in mg/kg of mouse is provided.
The mice are dosed with test compound orally by intubation at appropriate intervals following infection and mortality is recorded through the third day. The effective dose 50 (ED50) and lethal dose for 50% kill (LD50) are calculated by the Reed-Muench method.
In Table I are the results of a test in mice infected with Escherichia coli by the intraperitoneal route. Compound was administered orally by intubation immediately following infection and again 4 hours after infection.
^1 Animals dosed orally at the time of infection and again four hours
^2 Determined by agar plate counts and stock culture titration, the
dose is the LD50 multiplied by the number preceding it.

[2] = Biological activity of stable versus metastable crystalline form (test not specified); type: in vivo; conditions: probably due to poor absorption
[3] = 18 LD50 E. coli infection, 10 mg/kg PO, at infection and again 4 hours later
[4] = 18 LD50 E. coli infection, 30 mg/kg PO, at infection and again 4 hours later
[5] = 18 LD50 E. coli infection, 100 mg/kg PO, at infection and again 4 hours later
[6] = 135 LD50 E. coli infection, 10 mg/kg PO, at infection and again 4 hours later
[7] = 135 LD50 E. coli infection, 30 mg/kg PO, at infection and again 4 hours later
[8] = 135 LD50 E. coli infection, 100 mg/kg PO, at infection and again 4 hours later
[9] = 4 LD50 E. coli infected mice, oral, read-out: ED50
[10] = 2 LD50 E. coli infected mice, oral, read-out: ED50

SMILES: CC(C)(C)C(=O)OCOC(=O)c1cn(CC(F)(F)F)c2cc3c(cc2c1=O)OCO3 [Example 6, 6,7-Methylenedioxy-1-(2,2,2-trifluoroethyl)-4(1H)-quinolone-3-carboxylic acid, trimethylacetoxymethyl ester]
- % Survivors [1, 3]: 33%
- % Survivors [1, 4]: 50%
- % Survivors [1, 5]: 75%
- % Survivors [1, 6]: 17%
- % Survivors [1, 7]: 8%
- % Survivors [1, 8]: 50%
- ED50 ([1]; 18 LD50 E. coli infection, PO, at infection and again 4 hours later, Reed-Muench, read-out: ED50): 24 mg/kg
- ED50 ([1]; 135 LD50 E. coli infection, PO, at infection and again 4 hours later, Reed-Muench, read-out: ED50): 77 mg/kg
- antibacterial activity compared with oxolinic acid ([1]; systemic Escherichia coli infection of mice, two infecting levels of bacteria): significantly greater antibacterial activity than does oxolinic acid

SMILES: CC(C)C(=O)OCOC(=O)c1cn(CC(F)(F)F)c2cc3c(cc2c1=O)OCO3 [Example 6A, 6,7-methylenedixoy-1-(2,2,2-trifluoroethyl)-4(1H)-quinolone-3-carboxylic acid, iso-butyryloxymethyl ester]
- ED50 [1, 9]: 73 mg/kg

SMILES: CCC(C)(C)C(=O)OCOC(=O)c1cn(CC(F)(F)F)c2cc3c(cc2c1=O)OCO3 [Example 6B, 6,7-methylenedioxy-1-(2,2,2-trifluoroethyl)-4(1H)-quinolone-3-carboxylic acid, 2,2-dimethyl-n-butyryloxymethyl ester]
- ED50 [1, 9]: 40 mg/kg

SMILES: CCCCCC(=O)OCOC(=O)c1cn(CC(F)(F)F)c2cc3c(cc2c1=O)OCO3 [Example 6C, 6,7-methylenedioxy-1-(2,2,2-trifluoroethyl)-4(1H)-quinolone-3-carboxylic acid, n-hexanoyloxymethyl ester]
- ED50 [1, 9]: 25 mg/kg

SMILES: CCCCCCCCCC(=O)OCOC(=O)c1cn(CC(F)(F)F)c2cc3c(cc2c1=O)OCO3 [Example 6D, 6,7-methylenedioxy-1-(2,2,2-trifluoroethyl)-4(1H)-quinolone-3-carboxylic acid, n-decanoyloxymethyl ester]
- ED50 [1, 10]: 19 mg/kg

SMILES: O=C(OCOC(=O)C1CCCCC1)c1cn(CC(F)(F)F)c2cc3c(cc2c1=O)OCO3 [Example 6E, 6,7-methylenedioxy-1-(2,2,2-trifluoroethyl)-4(1H)-quinolone-3-carboxylic acid, cyclohexanecarbonyloxymethyl ester]
- ED50 [1, 10]: 29 mg/kg

SMILES: O=C(OCOC(=O)c1cn(CC(F)(F)F)c2cc3c(cc2c1=O)OCO3)c1ccccc1 [Example 6F, 6,7-methylenedioxy-1-(2,2,2-trifluoroethyl)-4(1H)-quinolone-3-carboxylic acid, benzoyloxymethyl ester]
- ED50 [1, 9]: 34 mg/kg

SMILES: CCn1cc(C(=O)O)c(=O)c2cc3c(cc21)OCO3 [Oxolinic Acid, reference compound]
- % Survivors [1, 3]: 8%
- % Survivors [1, 4]: 33%
- % Survivors [1, 5]: 83%
- % Survivors [1, 6]: 17%
- % Survivors [1, 7]: 17%
- % Survivors [1, 8]: 25%
- ED50 ([1]; 18 LD50 E. coli infection, at infection and again 4 hours later, Reed-Muench): 45 mg/kg
- ED50 ([1]; 135 LD50 E. coli infection, at infection and again 4 hours later, Reed-Muench): > 100 mg/kg

SMILES: CC(C)(C)C(=O)OCOC(=O)c1cn(CC(F)(F)F)c2cc3c(cc2c1=O)OCO3 [stable form, 6,7-Methylenedioxy-1-(2,2,2-trifluoroethyl)-4(1H)-quinolone-3-carboxylic acid, trimethylacetoxymethyl ester]
- biological activity of stable form compared with meta-stable form [2]: less active than the meta-stable
